Assay results from a melting point compilation (Tetko et al.; mined from patent text by program, amines drawn as free bases though some values may be those of a salt).

SMILES | melting point
Cc1c(NC(=O)N2CC[C@H](O[Si](C)(C)C(C)(C)C)[C@H]2CO)ccc(C#N)c1Cl | 174 to 176 °C
CNC(=O)N1N=C(c2ccc(N)cc2)c2ccc(Cl)cc2CC1C (stereo not given) | 134 to 136 °C
O=C1CNC(=O)N1c1ccc([N+](=O)[O-])cc1 | 250 to 251 °C
COc1cccc(C(=O)Nc2cc(C(=O)NCc3ccccc3)ccn2)c1 | 95 to 96 °C
CCCCCCCCCCCCCCCC(=O)NC(CCCCCCCCCCCCCCC)CC(=O)NCCC(=O)NC(Cc1ccccc1)C(=O)O (stereo not given) | 169 to 174 °C
Nc1c(Oc2ccc(F)c(C(F)(F)F)c2)ncnc1Oc1ccc(F)c(C(F)(F)F)c1 | 104 to 105 °C
Oc1c2c(nn1-c1ccc(C(F)(F)F)cn1)CCc1ccccc1-2 | 158 to 159 °C
COc1cc(Nc2nccc(-c3ccc[nH]3)n2)cc(OC)c1OC | 150 °C
CC1=CC(=O)C=C2CC(C)C3C4CCC(=O)C4(C)CCC3C12C (stereo not given) | 148 to 151 °C
Oc1ccc2c(c1)SCCc1c-2n(CCCCCN2CCCCC2)c2ccccc12 | 130 °C
CC(C)c1nc(-c2ccccc2)c(F)c(-c2ccc(F)cc2)c1CO | 164 to 165 °C
Cc1ncsc1C(O)c1cccc(O)c1 (stereo not given) | 181 to 184 °C
Clc1ccc(-c2noc3ccc(CBr)cc23)cc1 | 142 °C
O=C(NCCCCCCCCCCCO[N+](=O)[O-])c1ccc(N2CCNCC2)nc1 | 78 to 80 °C
O=C(O)c1ccc(NCc2cccc([N+](=O)[O-])c2)cc1O | 189 °C
Nc1ccc(Oc2ccc(S(=O)(=O)c3ccc(Oc4ccc(N)c(O)c4)cc3)cc2)cc1O | 228 to 231 °C
Cc1ccc(C23CNCC2CC3=O)cc1 (stereo not given) | 130 to 133 °C
Cc1oc(-c2ccc(Cl)cc2)cc1C(=O)NCc1ccc2cc(OCC(=O)O)ccc2c1 | 177 to 181 °C
COc1ccc(N2CCN(Cc3n[nH]c4c3CCc3ccccc3-4)CC2)cc1 | 207 to 208 °C
Nc1nc(O)c2cc(CCc3ccc(C(=O)N[C@@H](CCC(=O)O)C(=O)O)cc3)cnc2n1 | > 200 °C
O=[N+]([O-])C=Cc1cc(OCc2ccccc2)c(OCc2ccccc2)cc1[N+](=O)[O-] | 162 to 164 °C
Nc1cccnc1-c1ccccc1 | 59 to 62 °C

SMILES | melting point
CCCCCCCCCCCCCCCCCCOc1cn(-c2ccc(OCc3ccccc3)cc2)c(CNCCCN(C)C)cc1=O | 103 to 109 °C
CC(C)C(NC(=O)OCCN1CCOCC1)C(=O)NC(Cc1ccccc1)C(O)C(Cc1ccccc1)NC(=O)C(NC(=O)OCCN1CCOCC1)C(C)C (stereo not given) | 122 to 123 °C
O=c1[nH]c(SCCCN2CCN(c3ccccn3)CC2)nc2sc3c(c12)CCCC3 | 190 to 192 °C
Cc1c([N+](=O)[O-])ccc(OCc2ccccc2)c1Cl | 73 to 74.5 °C
O=S(=O)(NCCO)c1cccc(-c2cccc(-c3nc(-c4ccc(C(F)(F)F)cc4)cc(C(F)(F)F)n3)c2)c1 | 153 °C
Cn1cc(-c2ccc3ncn(Cc4ccc5ncccc5c4)c3n2)cn1 | 150 to 152 °C
O=[N+]([O-])c1ccc(OCc2ccccc2)c(C(F)(F)F)c1 | 112 to 114 °C
CS(=O)(=O)c1ncc2cc(-c3ccccc3Cl)c(O)nc2n1 | 215 to 221 °C
Nc1ccc(S(=O)(=O)c2cc(N)nc(Br)c2)cc1 | 204 to 205 °C
O=C1CN=C(c2ccc(O)cc2)c2cc(Cl)ccc2N1 | 271 to 272 °C
Cc1cc(CO)cc([N+](=O)[O-])c1 | 56.8 to 57.9 °C
CC1CCc2c(N3CCCCC3)c(F)cc3c(=O)c(C(=O)O)cn1c23 (stereo not given) | 258 to 261 °C
CCCC(Br)c1nc2ccccc2n1Cc1ccc(C#N)cc1 (stereo not given) | 135 °C
Cc1ccccc1-c1cc(C(F)(F)F)n2cnc(C#N)c2n1 | 151 °C
COc1ccc(-c2cc(=S)n(Cc3ccc(Cl)cc3Cl)nc2-c2ccc(OC)cc2)cc1 | 170 °C
CC(=O)NC1CCc2c([nH]c3cc(O)ccc23)C1 (stereo not given) | 245 to 246 °C
CCC(O)(Cn1cncn1)c1ccc(Oc2ccc(Cl)cc2)cc1Cl (stereo not given) | 140 to 142 °C
Clc1cnc2ccc(Cl)c(Cl)c2n1 | 118 to 119 °C
O=[N+]([O-])c1cc(Cl)c(CCN2CCN(c3nsc4ccccc34)CC2)cc1Cl | 153 to 157 °C
O=c1nc(-c2cccc(Sc3ccncc3)n2)sc2ccccc12 | 245 to 246 °C
O=C(O)C(=O)c1cc(Cl)c(OCCOc2ccc3ccccc3c2)c(Cl)c1 | 108 to 110 °C
Fc1ccc(CNc2nc(-n3cnc4ccccc43)nc(-n3cnc4ccccc43)n2)cc1 | 296 to 298 °C

Now from value to molecule:

melting point | SMILES
41 to 42 °C | COC(=O)c1c(C(F)F)nc(C(F)(F)F)c(C(=O)OC)c1OC(C)C
160 to 162 °C | O=C(Nc1ccc(C(=O)SCC2C(=O)OCC2c2ccccc2)cc1)OCc1ccccc1 (stereo not given)
179 °C | CC1(C)CCCC(=Cc2ccc(Cl)cc2)C1(O)Cn1cncn1 (stereo not given)
> 200 °C | Cc1nc(O)c([N+](=O)[O-])c(N2CCc3cncnc3CC2)n1
235 to 236 °C | CCCOc1ccccc1-c1nc2nc(NC)ncc2c(=O)[nH]1
267 to 268 °C | CC(C)(C)c1cc(NC(=O)c2csc(-c3ccc(N)cc3)n2)cc(C(C)(C)C)c1O
66 to 68 °C | CCC(=O)c1ccc(-c2ccc(Cl)cc2)o1
172 °C | CCC1OCc2c1cnc(C)c2O (stereo not given)
123 to 124 °C | Cn1cc(Br)cc1C=O
105 to 107 °C | C#Cc1ccc2c(c1)C(C)(C)CCS2=O (stereo not given)
166 to 167 °C | CC(C)(C)OC(=O)NC1(C(=O)NCC(F)(F)F)CC1
132 to 133 °C | CCOC(=O)c1c(CCBr)nc2cc(OC)c(OC)cc2c1-c1ccc(OC)c(OC)c1
277 to 285 °C | Cn1c(=O)[nH]c(=O)c2cccnc21
53.5 to 54 °C | COC(=O)C(CC(=O)c1ccccc1)SC(C)=O (stereo not given)
148 to 149 °C | CCOc1cc(/C(=C\C#N)c2ccc(NC(=O)OC)c(OC)c2)ccc1OC
92 to 93 °C | CN(C)Cc1cccc(OCCCNc2nc(N)n[nH]2)c1
265 to 267 °C | COc1ccc(C=CC(=O)N2CCN(c3nc(N)c4cc(OC)c(OC)cc4n3)CC2)cc1
229 to 230 °C | NS(=O)(=O)c1ccc(C2CCNCC2)cc1
135 to 138 °C | Cn1cc(C(=O)NCc2ccc(Cl)cc2)c(=O)c2cc(C(C)(C)CCO)ccc21

melting point | SMILES
74 to 76 °C | COc1ccc(C#N)c2c1OC1(CCCC1)C2
153 to 158 °C | COc1ccc(C=C2NC(=O)NC2=O)cc1OC
147 to 148 °C | CCOC(=O)N[C@@H]1c2cc(C#N)ccc2OC(C)(C)[C@H]1O (relative stereo)
83 to 85 °C | CC(C)(C)C(O)(Cn1cncn1)C(=O)C=Cc1ccc(Cl)cc1 (stereo not given)
107 to 108 °C | COc1cc(COc2nn(-c3ccccc3)cc2/C=C/P(=O)(OC)OC)ccc1OCc1nc(-c2ccco2)oc1C
170 to 172 °C | CCOC(=O)c1cnn2c1nc(Cl)c1cnc3c(cnn3CC)c12
129 to 131 °C | CN(C)C(=O)c1ccc(CCC(=O)c2cccc(OCc3ccc4ccc(Cl)cc4n3)c2)o1
129 to 131 °C | COC(=O)C1=C(C)NC(C)=C(C(=O)OCCCl)C1c1cccc([N+](=O)[O-])c1 (stereo not given)
120 °C | COc1ccccc1N1CCN(CC(O)COc2cccc3c2CCCC3=O)CC1 (stereo not given)
85 to 93 °C | CC1(C)SC2C(NC(=O)CNC(=O)c3ccccc3)C(=O)N2C1c1nnn[nH]1 (stereo not given)
40 to 42 °C | O=Cc1cc(-n2nnnc2C(F)(F)F)ccc1OC(F)(F)F
225 to 226 °C | Fc1ccc(Nc2nc(OCC3CCCCC3)c3[nH]cnc3n2)cc1Cl
199 °C | Cc1cccc(N2CCOCC2)c1NC(N)=S
132 to 134 °C | COC1C(OC(=O)c2ccccc2)C(COC(=O)c2ccccc2)OC1n1ccc(=O)[nH]c1=O (stereo not given)
85 to 96 °C | COc1cc(C2CCN(C[C@H](Oc3ncc4ccc(-c5ccccc5N(C)S(C)(=O)=O)n4n3)C(F)(F)F)CC2)ccc1N
128 to 132 °C | COc1cc(Cc2cnc(N)nc2N)c2c(c1OC)OC(C)CC2=O (stereo not given)
125 to 127 °C | COc1cccc(N2CCC(NC(C)=O)CC2)n1
189 to 191 °C | Cc1ccc(-n2c(=O)nc(N(C)C)n(C)c2=O)cc1C
74 to 87 °C | CCOC(=O)/C=C(C)/C=C/C=C(C)/C=C(/F)c1c(C)cc(OC)c(C)c1C

melting point | SMILES
96 to 98 °C | COc1ccc(CS[C@H]2C[C@@H](C(=O)O)N(C(=O)OCc3ccc([N+](=O)[O-])cc3)C2)cc1
48 °C | C=CC[C@@H]1C(=O)OC[C@@H]1O[Si](C)(C)C(C)(C)C
89 to 91 °C | Cc1ccc(C(=O)c2c(C)cc(C)cc2OCC(O)CNC(C)C)cc1 (stereo not given)
151 to 153 °C | CC(CC(C)C1CCC2C3C(O)CC4CC(O)CCC4(C)C3CC(O)C12C)C(=O)O (stereo not given)
216 to 217 °C | Cc1nc(N2CCN(Cc3ccc(C(F)(F)F)cc3)C2=O)sc1C(N)=O
309 to 310 °C | Cc1nnc2c3[nH]cnc3n(Cc3ccccc3)c(=O)n12
195 to 196 °C | CC(=O)Oc1ccc(C(C)(C)C)cc1C1(OC(C)=O)C(=O)c2ccccc2C1=O
43 to 45 °C | COC(=O)c1ccccc1-c1ccc(COS(C)(=O)=O)cc1
183 to 184 °C | COc1cc2c(cc1OC)[C@@H]1CN(C)CC[C@@H]1N=C2c1ccc(Cl)c(Cl)c1 (relative stereo)
184 to 185 °C | CC(C)(N)c1ccc(-c2nc(Nc3cccc(CCO)c3)ncc2Cl)cc1
243 to 244 °C | Cc1ccc2c(c1)C(=O)N(C)CC(=O)N2
152 to 153 °C | COc1ccccc1CSc1c(O)cc(-c2ccccc2)oc1=O
165 to 166 °C | COC(=O)C1=C(C)Nc2ccccc2SC1c1ccccc1C(F)(F)F (stereo not given)
105 to 106 °C | O=C1c2ccccc2COc2cc(Cl)ccc21
77.5 to 79 °C | CCC(=O)OCC(CCn1cnc2cnc(N)nc21)COC(=O)CC
185 to 192 °C | Cn1c(=O)c2c(N3CCCCC3)cccc2n2cnc(-c3noc(C4CC4)n3)c12
87 to 90 °C | CC1(CC(=O)O)CCCCC1=O (stereo not given)
164 to 167 °C | O=C1C2CCCC2=Nc2ccccc2N1Cc1ccc2ccccc2c1 (stereo not given)
